The values that follow come from US20090291857A1, “METHODS TO IDENTIFY INHIBITORS OF THE UNFOLDED PROTEIN RESPONSE” (THE BOARD OF TRUSTEES OF THE LELAND STANFORD JUNIOR …, priority 2006, published 2009).

Molecules are shown by their SMILES. pIC50: −log10 of the molar value.

For the test, the system named is IRE1α/XBP-1 pathway (XBP1-luciferase reporter). The experiment in a line: High throughput XBP-luciferase reporter screen, tunicamycin/thapsigargin induced (HTS and IRE IC50). In kind it is cell-based, human. The procedure: Specifically, HT1080 fibrosarcoma cells stably transfected with the unspliced XBP-1-luciferase reporter construct (3000/well) were plated onto a solid white 384 well microplate with a multidrop dispenser (40 μL per well). The plates were then placed into an automated incubator. After 24 hours of growth, a mixture of tunicamycin (1 μg/ml) and thapsigargin (100 nM) inducers were added, and candidate compounds were then added to the plates. After 24 hours, luciferase reagent (10 μl) was added to each well and the plates were read in a Molecular Devices Analyst GT (0.2 second read per well).
As described above in Example 2, HT1080 fibrosarcoma cells stably expressing the XBP-luciferase reporter were plated in a 384 well microplate (4000 cells/well). After 24 hours, cells were treated with a mixture of tunicamycin (4 μg/ml) and thapsigargin (0.4 μM), followed by the addition of one compound per well (10 μM). We screened a total of 66,000 diverse molecules obtained from Specs, Chembridge and ChemRX. Twenty-four hours post-induction, BriteGlo luciferase substrate (10 μl) was added to each well and the signal intensity determined in a plate reader (0.2 s read per well). […] We retested 431 compounds from the initial screen, and selected 58 compounds for additional analysis, including calculation of IC50 values and inhibition of a CMV-luciferase reporter.
A. XBP-luciferase reporter construct. Firefly luciferase was inserted downstream of the IRE1α splice site in human XBP-1 to enable the conditional translation of luciferase under ER stress in an IRE1α-dependent manner. B. Selective inhibition of the XBP-luciferase reporter by irestatin 9389. HT1080 human fibrosarcoma cells stably expressing the XBP-luciferase reporter or CMV-luciferase were cultured in the presence of Tm (4 μg/ml) and Tg (0.4 μM) and irestatin 9389 at the indicated concentrations. After 24 hours, luciferase activity was analyzed in an automated plate reader. For each cell line, values are expressed as the percent inhibition of the median for Tm/Tg-treated wells, corrected for background. C. Structure of irestatin 9389. D. XBP-luciferase reporter assay. HT1080 cells stably expressing the XBP-luciferase reporter were exposed to Tm (4 μg/ml) for 24 hours or hypoxia (0.1% oxygen) for 24 or 48 hours, in the presence of DMSO or irestatin 9389 (1 μM) as indicated. Values are expressed as the fold increases over uninduced levels. E. 5X-UPRE reporter assay. HT1080 cells were co-transfected with 5X-UPRE luciferase and SV40-beta-gal reporter plasmids, followed by exposure to Tm or hypoxia as in D. For each condition, luciferase activity is normalized to beta-galactosidase expression levels as an internal control for transfection efficiency. F. Western immunoblot analysis of XBP-1s. HT1080 cells were left untreated (lane 2) or exposed to Tm (4 μg/ml) for 20 hours in the presence of DMSO vehicle (lane 1) or the indicated irestatins (2 μM; lanes 3-6). Cell lysates were resolved by SDS-PAGE and immunoblotting using antisera specific for XBP-1s (top panel) or actin and GAPDH (bottom panel) as loading controls. […] HT1080 cells were treated with DMSO or exposed to irestatin 9389 (2 μM; lane 3) in normoxia (N) or under hypoxia for 24 hours (H 24; lanes 2,3). Cells were harvested, lysed, and analyzed by immunoblotting with antisera specific for HIF-1α (top), XBP-1s (middle) or actin (bottom). H. Northern blot analysis of XBP-1s transcription targets. Cells were exposed to Tm (4 μg/ml) or hypoxia for 24 hours (H 24) in the absence or presence of irestatin 9389 (2 μM). Total RNA was analyzed by Northern blotting using radiolabeled probes specific for P58^IPK or DER-1. Total rRNA is shown as loading control.
As described above, a HT1080 fibrosarcoma cell line stably expressing a fusion of unprocessed XBP-1 inserted upstream of firefly luciferase has been developed to identify small molecule inhibitors of the IRE1α/XBP-1 signaling module. […]
On the technique in general: A reporter such as luciferase makes a cellular process visible.

Take `Cc1csc(NC(=O)CSc2nc3c(c(C(F)(F)F)c2C#N)CCC3)n1` [Compound 9389]: the “inhibition of IRE1α / IRE1α/XBP-1 signaling module in screen” value (HT1080 XBP-luciferase, Tm/Tg) was “potent and specific inhibition of IRE1α”. Further, the inhibition at 10 µM (Homo sapiens, 24 h, inhibition of XBP1-luciferase reporter, read-out: Activity Class) is 75 to 100%. Further, the pIC50 (Homo sapiens, HT-1080, 24 h, HT1080, Tm 4 μg/ml and Tg 0.4 μM, 24 hours, read-out: mean inhibitory concentration (IC50) of XBP-luciferase activity) was around 7.60. Under “Homo sapiens, IRE IC50 assay, Conc 20 uM”, the inhibition at 20 µM was 87.1%.
